According to the NIST ThermoML archive (doi:10.1016/j.fluid.2019.06.022):
Values joined by “and” are separate entries in the source; they are usually repeats but may differ in a detail not shown here. Identical values can stand only once.

Experiment: xn = mol fraction of the nth substance listed
Conditions: Liquid; for mass density: Bellows volumetry; for viscosity: Falling or rolling sphere viscometry

C=C [ethene] + Cc1ccccc1
Conditions | mass density, x1 = 0.1131 [kg/m3] | mass density, x1 = 0.3241 | viscosity, x1 = 0.1131 | viscosity, x1 = 0.3241
295.4 K, 2700 kPa | 815.8 | – | 0.474 mPa·s | –
295.4 K, 2800 kPa | 815.8 | – | 0.474 mPa·s | –
295.4 K, 11400 kPa | 823.1 | – | 0.508 mPa·s | –
295.4 K, 11500 kPa | 823.1 | – | 0.509 mPa·s | –
295.4 K, 20400 kPa | 829.9 | – | 0.551 mPa·s | –
295.4 K, 20500 kPa | 829.9 | – | 0.548 mPa·s | –
295.4 K, 36200 kPa | 840.8 | – | 0.614 mPa·s and 0.615 mPa·s | –
298 K, 3400 kPa | – | 754.7 kg/m3 | – | 0.309 mPa·s
298 K, 3700 kPa | – | 754.7 kg/m3 | – | 0.312 mPa·s
298 K, 10000 kPa | – | 767.2 kg/m3 | – | 0.328 mPa·s and 0.332 mPa·s
298 K, 22000 kPa | – | 778.9 kg/m3 | – | 0.36 mPa·s and 0.364 mPa·s
298 K, 22300 kPa | – | 778.9 kg/m3 | – | 0.362 mPa·s
298 K, 22400 kPa | – | 778.9 kg/m3 | – | 0.366 mPa·s
298 K, 35100 kPa | – | 789.8 kg/m3 | – | 0.402 mPa·s and 0.398 mPa·s
298 K, 48000 kPa | – | 799.7 kg/m3 | – | 0.434 mPa·s and 0.439 mPa·s
298 K, 68400 kPa | – | 813.3 kg/m3 | – | 0.496 mPa·s
298 K, 68500 kPa | – | 813.3 kg/m3 | – | 0.5 mPa·s
322.1 K, 4200 kPa | 792.1 | – | 0.36 mPa·s and 0.361 mPa·s | –
322.1 K, 10200 kPa | 798.1 | – | 0.376 mPa·s and 0.377 mPa·s | –
322.1 K, 21200 kPa | 808 | – | 0.415 mPa·s | –
322.1 K, 34400 kPa | 819.1 | – | 0.442 mPa·s | –
322.1 K, 34500 kPa | 819.1 | – | 0.452 mPa·s | –
322.1 K, 48100 kPa | 828.1 | – | 0.495 mPa·s | –
322.1 K, 48200 kPa | 828.5 | – | 0.498 mPa·s and 0.497 mPa·s | –
322.1 K, 65900 kPa | 840 | – | 0.556 mPa·s and 0.55 mPa·s | –
322.2 K, 7200 kPa | – | 739.3 kg/m3 | – | 0.25 mPa·s and 0.253 mPa·s
322.2 K, 14700 kPa | – | 748.2 kg/m3 | – | 0.268 mPa·s and 0.27 mPa·s
322.2 K, 21700 kPa | – | 756.1 kg/m3 | – | 0.288 mPa·s
322.2 K, 21800 kPa | – | 756.1 kg/m3 | – | 0.283 mPa·s
322.2 K, 34300 kPa | – | 768.4 kg/m3 | – | 0.313 mPa·s
322.2 K, 34500 kPa | – | 768.4 kg/m3 | – | 0.317 mPa·s
322.2 K, 48300 kPa | – | 780.5 kg/m3 | – | 0.344 mPa·s and 0.348 mPa·s
322.2 K, 68800 kPa | – | 795.9 kg/m3 and 795.8 kg/m3 | – | 0.391 mPa·s and 0.397 mPa·s
368.1 K, 6800 kPa | – | 692.1 kg/m3 | – | 0.171 mPa·s and 0.169 mPa·s
368.1 K, 13800 kPa | – | 704 kg/m3 | – | 0.182 mPa·s
368.1 K, 13900 kPa | – | 704 kg/m3 | – | 0.185 mPa·s
368.1 K, 26500 kPa | – | 721.7 kg/m3 and 720.9 kg/m3 | – | 0.205 mPa·s and 0.208 mPa·s
368.1 K, 26600 kPa | – | 720.8 kg/m3 and 721.6 kg/m3 | – | 0.207 mPa·s and 0.208 mPa·s
368.1 K, 41800 kPa | – | 736.7 kg/m3 | – | 0.234 mPa·s
368.1 K, 42100 kPa | – | 736.7 kg/m3 | – | 0.235 mPa·s
368.1 K, 54100 kPa | – | 749.3 kg/m3 | – | 0.254 mPa·s and 0.255 mPa·s
368.1 K, 54300 kPa | – | 749.3 kg/m3 | – | 0.253 mPa·s and 0.256 mPa·s
368.1 K, 68200 kPa | – | 761.9 kg/m3 | – | 0.278 mPa·s and 0.279 mPa·s
369.3 K, 4200 kPa | 748.1 | – | 0.235 mPa·s | –
369.3 K, 4300 kPa | 748.1 | – | 0.236 mPa·s | –
369.3 K, 10200 kPa | 755.4 | – | 0.251 mPa·s | –
369.3 K, 10300 kPa | 755.4 | – | 0.25 mPa·s | –
369.3 K, 20700 kPa | 767.5 | – | 0.273 mPa·s | –
369.3 K, 20800 kPa | 767.5 | – | 0.273 mPa·s | –
369.3 K, 34800 kPa | 781.7 | – | 0.305 mPa·s and 0.304 mPa·s | –
369.3 K, 48700 kPa | 794.3 | – | 0.335 mPa·s | –
369.3 K, 48800 kPa | 794.3 | – | 0.335 mPa·s | –
369.3 K, 68400 kPa | 809.5 | – | 0.382 mPa·s | –
369.3 K, 68500 kPa | 809.5 | – | 0.379 mPa·s | –
435.9 K, 15500 kPa | – | 638 kg/m3 | – | 0.126 mPa·s
435.9 K, 15900 kPa | – | 637.9 kg/m3 | – | 0.126 mPa·s
435.9 K, 27600 kPa | – | 662 kg/m3 | – | 0.146 mPa·s
435.9 K, 27700 kPa | – | 662 kg/m3 | – | 0.144 mPa·s
435.9 K, 41800 kPa | – | 685.4 kg/m3 | – | 0.165 mPa·s
435.9 K, 42000 kPa | – | 685.3 kg/m3 and 685.5 kg/m3 | – | 0.168 mPa·s and 0.164 mPa·s
435.9 K, 42200 kPa | – | 685.4 kg/m3 | – | 0.166 mPa·s
435.9 K, 56000 kPa | – | 703.4 kg/m3 | – | 0.192 mPa·s
435.9 K, 56200 kPa | – | 703.4 kg/m3 | – | 0.188 mPa·s
435.9 K, 68400 kPa | – | 716.8 kg/m3 | – | 0.202 mPa·s
435.9 K, 68500 kPa | – | 716.8 kg/m3 | – | 0.199 mPa·s
437 K, 3900 kPa | 678.2 | – | 0.155 mPa·s | –
437 K, 4200 kPa | 678.2 | – | 0.153 mPa·s | –
437 K, 13700 kPa | 699 | – | 0.173 mPa·s | –
437 K, 14100 kPa | 699.1 | – | 0.172 mPa·s | –
437 K, 27600 kPa | 721 | – | 0.196 mPa·s | –
437 K, 27800 kPa | 721 | – | 0.197 mPa·s | –
437 K, 41400 kPa | 738.3 | – | 0.22 mPa·s | –
437 K, 41500 kPa | 738.3 | – | 0.22 mPa·s | –
437 K, 42400 kPa | 740 | – | 0.222 mPa·s | –
437 K, 42700 kPa | 740 | – | 0.224 mPa·s | –
437 K, 54200 kPa | 750.9 | – | 0.242 mPa·s | –
437 K, 54300 kPa | 750.9 | – | 0.243 mPa·s | –
437 K, 67900 kPa | 763.9 | – | 0.264 mPa·s | –
522 K, 23100 kPa | – | 555.7 kg/m3 | – | 0.097 mPa·s
522 K, 23200 kPa | – | 555.5 kg/m3 | – | 0.095 mPa·s
522 K, 29400 kPa | – | 574.4 kg/m3 and 574.7 kg/m3 and 574.6 kg/m3 | – | 0.102 mPa·s and 0.104 mPa·s
522 K, 29500 kPa | – | 574.4 kg/m3 | – | 0.103 mPa·s
522 K, 38300 kPa | – | 597 kg/m3 [middle of 4 runs] | – | 0.114 mPa·s [middle of 4 runs]
522 K, 50700 kPa | – | 621.2 kg/m3 and 620.9 kg/m3 | – | 0.125 mPa·s and 0.126 mPa·s
522 K, 50800 kPa | – | 621.2 kg/m3 | – | 0.125 mPa·s
522 K, 50900 kPa | – | 621.2 kg/m3 | – | 0.123 mPa·s
522 K, 68400 kPa | – | 645.9 kg/m3 | – | 0.144 mPa·s
522 K, 68700 kPa | – | 646 kg/m3 | – | 0.142 mPa·s
522.7 K, 9400 kPa | 581.8 | – | 0.101 mPa·s | –
522.7 K, 9800 kPa | 581.8 | – | 0.103 mPa·s | –
522.7 K, 31600 kPa | 643.4 | – | 0.137 mPa·s | –
522.7 K, 32000 kPa | 643.4 | – | 0.131 mPa·s | –
522.7 K, 32200 kPa | 643.5 | – | 0.132 mPa·s | –
522.7 K, 41200 kPa | 659.4 | – | 0.15 mPa·s | –
522.7 K, 41700 kPa | 659.4 | – | 0.145 mPa·s | –
522.7 K, 56200 kPa | 679.5 | – | 0.167 mPa·s | –
522.7 K, 56300 kPa | 679.4 | – | 0.162 mPa·s | –
522.7 K, 67600 kPa | 693.8 | – | 0.179 mPa·s | –
522.7 K, 68100 kPa | 693.8 | – | 0.177 mPa·s | –
